The source of these data is patent US10473666B2, “Dye compounds” (SFC CO., LTD., priority 2015, dated 2019).

Data set [1] in a line: Absorption spectra, emission spectra, molar extinction coefficients and quantum yields of the dye compounds. The class given is physicochemical.
A short description of data set [2]: Photophysical properties incl. two-photon cross-sections (femtosecond fluorescence measurement technique). The class given is physicochemical. Particulars: for eΦ: Molar extinction coefficient × fluorescence quantum yield: in M-1cm-1. Here is the method: All measurements were performed in DMSO, ethanol, and PBS buffer. Two-photon cross-sections (δ) were measured using a femtosecond (fs) fluorescence measurement technique.

As for `CC[N+]1=C(/C=C/C=C2/N(CCCCCC(=O)O)c3ccccc3C2(C)C)C(C)(C)c2ccccc21` [Comparative, reference compound], in data set [1] (Table 1, solvent not given), the “Q.Y. (quantum yield)” value came to 0.04, the “ε (molar extinction coefficient)” value is given as 150,000 M^−1cm^−1, the λabs came to 548 nm and the λem was 562 nm. For the same compound, in data set [1] (Table 4, solvent not given), the Quantum yield is 0.04, the “ε (molar extinction coefficient)” value is listed as 150,000 M^−1cm^−1, the λabs turned out to be 548 nm and the λem is 562 nm. In data set [1] (Table 6, solvent not given), the Quantum yield is given as 0.04, the “ε (molar extinction coefficient)” value was 150,000 M^−1cm^−1, the λabs is 548 nm and the λem was 562 nm.
Consider `CC1(C)C2=C3C=C4C=C(c5nc6ccc(C(=O)O)cc6s5)C(=O)C=C4OC3CCN2c2ccccc21` (stereo not shown) [Formula 51], for which, in data set [1] (Table 4, solvent DMSO), the Quantum yield was 0.75, the “ε (molar extinction coefficient)” value was 78,800 M^−1cm^−1, the λabs turned out to be 595 nm and the λem is listed as 621 nm.
On to `CC1(C)C2=C3C=C4C=CC(=O)C=C4OC3CCN2c2ccc(CC(=O)O)cc21` (stereo not shown) [Formula 52], for which, in data set [1] (Table 4, solvent PBS), the Quantum yield came out at 0.61, the λabs stood at 541 nm and the λem was found to be 564 nm.
`CC1(C)C2=C3C=C4C=C(C(=O)O)C(=O)C=C4OC3CCN2c2ccc(S(=O)(=O)O)cc21` (stereo not shown) [Formula 53]: in data set [1] (Table 4, solvent DMSO), the Quantum yield stood at 0.95, the “ε (molar extinction coefficient)” value is 33,000 M^−1cm^−1, the λabs is 546 nm and the λem is reported as 570 nm.
`COc1ccc2c(c1)OC1CC[N+]3=C(C1=C2)C(C)(C)c1ccccc13` (stereo not shown) [Formula 99]: in data set [1] (Table 6, solvent DMSO), the Quantum yield was determined as 0.65, the “ε (molar extinction coefficient)” value is given as 21,000 M^−1cm^−1, the λabs came out at 467 nm and the λem came out at 563 nm. Besides, in data set [1] (Table 6, solvent EtOH), the Quantum yield turned out to be 0.52, the “ε (molar extinction coefficient)” value is recorded as 22,000 M^−1cm^−1, the λabs is reported as 474 nm and the λem amounted to 558 nm. Also, in data set [1] (Table 6, solvent PBS), the Quantum yield amounted to 0.42, the “ε (molar extinction coefficient)” value is 30,000 M^−1cm^−1, the λabs is reported as 463 nm and the λem was determined as 558 nm.
For the compound `CC1(C)C2=[N+](CCC3Oc4c(cc5c6c4CCCN6CCC5)C=C23)c2ccccc21` (stereo not shown) [Formula 100], in data set [2] (Buffer (PBS buffer)), the “d: Peak two-photon cross-section” value was 272 10^−50 cm^4s per photon (GM), the dΦ: Two-photon action cross-section was 177 GM, the “Φ: Fluorescence quantum yield” value stood at 0.65 and the “λ^(2)max^abs: Maximum wavelength in two-photon absorption spectrum” value (shortened to “λ^(2)max^abs: Maximum wavelength”) worked out at 740 nm. In data set [2] (Buffer (PBS buffer)), the “λmax^fl: Maximum wavelength in single-photon emission spectrum” value (“λmax^fl: Maximum wavelength” for short) came to 611 nm and the “eΦ: Molar extinction coefficient × fluorescence quantum yield” value came to 61750. In addition, in data set [2] (DMSO), the “Φ: Fluorescence quantum yield” value came out at 0.90 and the “λmax^fl: Maximum wavelength” value stood at 618 nm. In addition, in data set [2] (EtOH), the dΦ: Two-photon action cross-section amounted to 114 GM and the “λ^(2)max^abs: Maximum wavelength” value was found to be 750 nm. Further, in data set [1] (Table 6, solvent DMSO), the Quantum yield is 0.90, the “ε (molar extinction coefficient)” value was 65,000 M^−1cm^−1, the λabs worked out at 594 nm and the λem came to 618 nm. Also, in data set [1] (Table 6, solvent EtOH), the Quantum yield is on record as 0.90, the “ε (molar extinction coefficient)” value was 75,000 M^−1cm^−1, the λabs is 592 nm and the λem is given as 612 nm. For the same compound, in data set [1] (Table 6, solvent PBS), the Quantum yield is 0.80, the “ε (molar extinction coefficient)” value is recorded as 54,000 M^−1cm^−1, the λabs is 589 nm and the λem was 608 nm.
For the compound `C1=C2c3sc4ccccc4[n+]3CCC2Oc2c1cc1c3c2CCCN3CCC1` (stereo not shown) [Formula 101], in data set [2] (Buffer (PBS buffer)), the “d: Peak two-photon cross-section” value is 89 10^−50 cm^4s per photon (GM), the dΦ: Two-photon action cross-section amounted to 54 GM, the “Φ: Fluorescence quantum yield” value worked out at 0.61 and the “λ^(2)max^abs: Maximum wavelength” value turned out to be 740 nm. For the same compound, in data set [2] (Buffer (PBS buffer)), the “λmax^fl: Maximum wavelength” value is on record as 619 nm and the “eΦ: Molar extinction coefficient × fluorescence quantum yield” value amounted to 29890. Besides, in data set [2] (DMSO), the “Φ: Fluorescence quantum yield” value came to 0.70 and the “λmax^fl: Maximum wavelength” value was found to be 630 nm. Moreover, in data set [2] (EtOH), the dΦ: Two-photon action cross-section came out at 54 GM and the “λ^(2)max^abs: Maximum wavelength” value amounted to 720 nm. Besides, in data set [1] (Table 6, solvent DMSO), the Quantum yield worked out at 0.70, the “ε (molar extinction coefficient)” value is on record as 54,000 M^−1cm^−1, the λabs turned out to be 584 nm and the λem amounted to 630 nm. In addition, in data set [1] (Table 6, solvent EtOH), the Quantum yield is given as 0.87, the “ε (molar extinction coefficient)” value is 66,000 M^−1cm^−1, the λabs is listed as 585 nm and the λem was 623 nm. Further, in data set [1] (Table 6, solvent PBS), the Quantum yield is 0.61, the “ε (molar extinction coefficient)” value is on record as 49,000 M^−1cm^−1, the λabs came to 578 nm and the λem is recorded as 619 nm.
On to `Oc1ccc2c(c1)OC1CC[n+]3c(sc4ccccc43)C1=C2` (stereo not shown) [Formula 102], for which, in data set [2] (Buffer (PBS buffer)), the “d: Peak two-photon cross-section” value is reported as 60 10^−50 cm^4s per photon (GM), the dΦ: Two-photon action cross-section is 42 GM, the “Φ: Fluorescence quantum yield” value was determined as 0.70 and the “λ^(2)max^abs: Maximum wavelength” value is recorded as 910 nm. In data set [2] (Buffer (PBS buffer)), the “λmax^fl: Maximum wavelength” value is recorded as 571 nm and the “eΦ: Molar extinction coefficient × fluorescence quantum yield” value is on record as 4970. For the same compound, in data set [2] (DMSO), the “Φ: Fluorescence quantum yield” value is given as 1.00 and the “λmax^fl: Maximum wavelength” value is 586 nm. In data set [2] (EtOH), the dΦ: Two-photon action cross-section was determined as 7.6 GM and the “λ^(2)max^abs: Maximum wavelength” value is 750 nm. For the same compound, in data set [1] (Table 6, solvent DMSO), the Quantum yield is 0.99, the “ε (molar extinction coefficient)” value was 23,000 M^−1cm^−1, the λabs is listed as 570 nm and the λem came out at 586 nm. For the same compound, in data set [1] (Table 6, solvent EtOH), the Quantum yield came out at 0.78, the “ε (molar extinction coefficient)” value was 6,800 M^−1cm^−1, the λabs worked out at 557 nm and the λem was 578 nm. In addition, in data set [1] (Table 6, solvent PBS), the Quantum yield is on record as 0.70, the “ε (molar extinction coefficient)” value was 7,100 M^−1cm^−1, the λabs was found to be 524 nm and the λem is listed as 571 nm.
As for `CC1(C)C2=C3C=C4C=C(C=O)C(=O)C=C4OC3CCN2c2ccccc21` (stereo not shown) [Formula 103], in data set [1] (Table 6, solvent DMSO), the Quantum yield is reported as 0.88, the “ε (molar extinction coefficient)” value is 108,000 M^−1cm^−1, the λabs is given as 566 nm and the λem stood at 586 nm. Moreover, in data set [1] (Table 6, solvent EtOH), the Quantum yield is reported as 0.84, the “ε (molar extinction coefficient)” value was 70,000 M^−1cm^−1, the λabs is recorded as 547 nm and the λem is on record as 574 nm. Moreover, in data set [1] (Table 6, solvent PBS), the Quantum yield was found to be 0.79, the “ε (molar extinction coefficient)” value is 48,000 M^−1cm^−1, the λabs turned out to be 516 nm and the λem was determined as 563 nm.
Turning to `C[n+]1c(/C=C/C2=CC3=CC4=C5N(CCC4OC3=CC2=O)c2ccccc2C5(C)C)sc2ccccc21` (stereo not shown) [Formula 104], in data set [1] (Table 6, solvent DMSO), the Quantum yield is 0.38, the “ε (molar extinction coefficient)” value was 52,000 M^−1cm^−1, the λabs came to 646 nm and the λem is given as 685 nm. For the same compound, in data set [1] (Table 6, solvent PBS), the Quantum yield was determined as 0.09, the “ε (molar extinction coefficient)” value is on record as 28,000 M^−1cm^−1, the λabs was determined as 559 nm and the λem was found to be 572 nm.
`CC1=CC(C)(C)N2CCCc3c4c(cc1c32)C=C1C2=[N+](CCC1O4)c1ccccc1C2(C)C` (stereo not shown) [Formula 105]: in data set [1] (Table 6, solvent DMSO), the Quantum yield came out at 0.70, the “ε (molar extinction coefficient)” value is recorded as 37,000 M^−1cm^−1, the λabs is recorded as 613 nm and the λem is given as 649 nm. In addition, in data set [1] (Table 6, solvent EtOH), the Quantum yield stood at 0.50, the “ε (molar extinction coefficient)” value is 44,000 M^−1cm^−1, the λabs is 611 nm and the λem is listed as 645 nm. In addition, in data set [1] (Table 6, solvent PBS), the Quantum yield is 0.28, the “ε (molar extinction coefficient)” value is 35,000 M^−1cm^−1, the λabs came out at 604 nm and the λem is listed as 643 nm.
For `CC1=CC(C)(C)N(CCCCCC(=O)O)c2cc3c(cc21)C=C1C2=[N+](CCC1O3)c1ccc3ccccc3c1C2(C)C` (stereo not shown) [Formula 106], in data set [1] (Table 6, solvent DMSO), the Quantum yield was determined as 0.72, the “ε (molar extinction coefficient)” value is recorded as 55,000 M^−1cm^−1, the λabs came out at 620 nm and the λem is 660 nm. In data set [1] (Table 6, solvent EtOH), the Quantum yield came to 0.59, the “ε (molar extinction coefficient)” value is given as 70,000 M^−1cm^−1, the λabs is 620 nm and the λem amounted to 657 nm. In data set [1] (Table 6, solvent PBS), the Quantum yield was 0.21, the “ε (molar extinction coefficient)” value is 29,000 M^−1cm^−1, the λabs stood at 616 nm and the λem was found to be 652 nm.
Regarding `CC1=CC(C)(C)N2CCCc3c4c(cc1c32)C=C1C2=[N+](CCC1O4)c1ccc3ccccc3c1C2(C)C` (stereo not shown) [Formula 107], in data set [1] (Table 6, solvent DMSO), the Quantum yield was 0.70, the “ε (molar extinction coefficient)” value is given as 40,000 M^−1cm^−1, the λabs is on record as 629 nm and the λem turned out to be 664 nm. Also, in data set [1] (Table 6, solvent EtOH), the Quantum yield is given as 0.52, the “ε (molar extinction coefficient)” value is given as 50,000 M^−1cm^−1, the λabs is 628 nm and the λem is recorded as 659 nm. In addition, in data set [1] (Table 6, solvent PBS), the Quantum yield is recorded as 0.29, the “ε (molar extinction coefficient)” value is listed as 37,000 M^−1cm^−1, the λabs is recorded as 624 nm and the λem amounted to 655 nm.
